Data: the OligoGym collection
HELM strings list units from the 5' end as sugar, base in round brackets, then linkage (d deoxyribose, r ribose, m 2'-O-methyl, p phosphodiester). Strings are as the collection lists them; they lack the last nucleoside at the 3' end of the tested compound. [moe] = 2'-O-(2-methoxyethyl) (MOE); [sp] = phosphorothioate linkage; [m5C] = 5-methylcytosine

The substances below were run against SCN2A (assay: mouse, dose not given). Conditions: ASO.

**Q.** Which 3 h FOB score does the source give for “RNA1{[moe]([m5C])[sp].[moe](T)p.[moe](G)p.[moe]([m5C])p.[moe](A)[sp].d(T)[sp].d(G)[sp].d(T)[sp].d(A)[sp].d(A)[sp].d([m5C])[sp].d([m5C])[sp].d(T)[sp].[moe](T)p.[moe](T)p.[moe](A)[sp].[moe](T)}$$$$ (last 3' nucleoside missing)” here?
**A.** Its 3 h FOB score is 0.5 score 0-7.

**Q.** “RNA1{[moe]([m5C])[sp].[moe](A)p.[moe](T)p.[moe](G)p.d(T)[sp].d(A)[sp].d(A)[sp].d([m5C])[sp].d([m5C])[sp].d(T)[sp].d(T)[sp].d(T)[sp].d(A)[sp].d(T)[sp].[moe](A)p.[moe]([m5C])p.[moe](A)p.[moe](T)[sp].[moe](T)}$$$$ (last 3' nucleoside missing)” was tested. Which 3 h FOB score did it give?
**A.** The 3 h FOB score was 0 score 0-7.

**Q.** For “RNA1{[moe](A)[sp].[moe](A)p.[moe](T)p.[moe](T)p.[moe]([m5C])p.d(T)[sp].d(A)[sp].d(T)[sp].d(T)[sp].d(T)[sp].d(T)[sp].d(A)[sp].d(T)[sp].d(A)[sp].d(A)[sp].[moe](A)p.[moe](T)p.[moe](G)[sp].[moe]([m5C])}$$$$ (last 3' nucleoside missing)”, which 3 h FOB score is on record?
**A.** Its 3 h FOB score is 0 score 0-7.

**Q.** For “RNA1{[moe](G)[sp].[moe](A)p.[moe](A)p.[moe](A)p.[moe](G)p.d(T)[sp].d(A)[sp].d(G)[sp].d(T)[sp].d(A)[sp].d([m5C])[sp].d([m5C])[sp].d(A)[sp].d(T)[sp].d(T)[sp].[moe]([m5C])p.[moe]([m5C])p.[moe]([m5C])[sp].[moe](A)}$$$$ (last 3' nucleoside missing)”, which 3 h FOB score is on record?
**A.** The 3 h FOB score was 1.67 score 0-7.

**Q.** “RNA1{[moe](T)[sp].[moe]([m5C])p.[moe](T)p.[moe](G)p.[moe]([m5C])[sp].d(A)[sp].d(T)[sp].d(G)[sp].d(T)[sp].d(A)[sp].d(A)[sp].d([m5C])[sp].d([m5C])[sp].[moe](T)p.[moe](T)p.[moe](T)[sp].[moe](A)}$$$$ (last 3' nucleoside missing)” was tested. Which 3 h FOB score did it give?
**A.** The 3 h FOB score was 1 score 0-7.

**Q.** How did the 3 h FOB score turn out when “RNA1{[moe](A)[sp].[moe](T)p.[moe](T)p.[moe](T)p.d([m5C])[sp].d(T)[sp].d(A)[sp].d(T)[sp].d(A)[sp].d(A)[sp].d([m5C])[sp].d(T)[sp].d([m5C])[sp].d(A)[sp].[moe](G)p.[moe]([m5C])p.[moe](A)p.[moe](A)[sp].[moe]([m5C])}$$$$ (last 3' nucleoside missing)” was run?
**A.** Its 3 h FOB score is 0 score 0-7.

**Q.** For “RNA1{[moe](T)[sp].[moe](G)p.[moe](G)p.[moe]([m5C])p.[moe](T)p.d(A)[sp].d(T)[sp].d(A)[sp].d([m5C])[sp].d(T)[sp].d([m5C])[sp].d(A)[sp].d(T)[sp].d(T)[sp].d(G)[sp].[moe]([m5C])p.[moe](T)p.[moe]([m5C])[sp].[moe](T)}$$$$ (last 3' nucleoside missing)”, which 3 h FOB score is on record?
**A.** Its 3 h FOB score is 1 score 0-7.

**Q.** “RNA1{[moe](G)[sp].[moe](A)p.[moe](G)p.[moe](A)p.[moe](G)p.d(A)[sp].d(T)[sp].d(T)[sp].d(G)[sp].d([m5C])[sp].d(T)[sp].d(T)[sp].d(T)[sp].d([m5C])[sp].d([m5C])[sp].[moe]([m5C])p.[moe](T)p.[moe](T)[sp].[moe](T)}$$$$ (last 3' nucleoside missing)” was tested. Which 3 h FOB score did it give?
**A.** Its 3 h FOB score is 1.33 score 0-7.

**Q.** Which 3 h FOB score does the source give for “RNA1{[moe](T)[sp].[moe](G)p.[moe]([m5C])p.[moe](T)p.[moe]([m5C])p.d(A)[sp].d([m5C])[sp].d(T)[sp].d(G)[sp].d(T)[sp].d([m5C])[sp].d([m5C])[sp].d(T)[sp].d(A)[sp].d(T)[sp].[moe](T)p.[moe](G)p.[moe](A)[sp].[moe](A)}$$$$ (last 3' nucleoside missing)” here?
**A.** The 3 h FOB score was 4 score 0-7.

**Q.** How did the 3 h FOB score turn out when “RNA1{[moe]([m5C])[sp].[moe]([m5C])p.[moe](G)p.[moe](A)p.d(A)[sp].d(T)[sp].d(T)[sp].d([m5C])[sp].d(T)[sp].d(A)[sp].d(T)[sp].d(T)[sp].d(T)[sp].d(T)[sp].[moe](A)p.[moe](T)p.[moe](A)p.[moe](A)[sp].[moe](A)}$$$$ (last 3' nucleoside missing)” was run?
**A.** The 3 h FOB score was 0 score 0-7.

**Q.** How did the 3 h FOB score turn out when “RNA1{[moe](A)[sp].[moe]([m5C])p.[moe](G)p.[moe](A)p.[moe]([m5C])p.[moe](A)p.d(T)[sp].d(A)[sp].d(T)[sp].d(T)[sp].d(T)[sp].d(T)[sp].d(T)[sp].d([m5C])[sp].d(T)[sp].d(A)[sp].[moe]([m5C])p.[moe](A)[sp].[moe]([m5C])}$$$$ (last 3' nucleoside missing)” was run?
**A.** Its 3 h FOB score is 0 score 0-7.

**Q.** With “RNA1{[moe](G)[sp].[moe](T)p.[moe](T)p.[moe]([m5C])p.[moe]([m5C])p.d(A)[sp].d(T)[sp].d(T)[sp].d(A)[sp].d(A)[sp].d(A)[sp].d([m5C])[sp].d(T)[sp].d(A)[sp].d(A)[sp].[moe](G)p.[moe](G)p.[moe]([m5C])[sp].[moe](T)}$$$$ (last 3' nucleoside missing)” as the substance, how does the 3 h FOB score read?
**A.** The 3 h FOB score was 1 score 0-7.

**Q.** How did the 3 h FOB score turn out when “RNA1{[moe](A)[sp].[moe]([m5C])p.[moe]([m5C])p.[moe](G)p.[moe](T)p.d([m5C])[sp].d(T)[sp].d([m5C])[sp].d(T)[sp].d(T)[sp].d(T)[sp].d([m5C])[sp].d(T)[sp].d(T)[sp].d(A)[sp].[moe](T)p.[moe](T)p.[moe](T)[sp].[moe]([m5C])}$$$$ (last 3' nucleoside missing)” was run?
**A.** The 3 h FOB score was 7 score 0-7.

**Q.** “RNA1{[moe]([m5C])[sp].[moe](A)p.[moe]([m5C])p.[moe](G)p.d([m5C])[sp].d(T)[sp].d(T)[sp].d(A)[sp].d([m5C])[sp].d(A)[sp].d(T)[sp].d([m5C])[sp].d(A)[sp].d(A)[sp].[moe](A)p.[moe]([m5C])p.[moe](A)p.[moe](T)[sp].[moe]([m5C])}$$$$ (last 3' nucleoside missing)” was tested. Which 3 h FOB score did it give?
**A.** The 3 h FOB score was 0 score 0-7.

**Q.** How did the 3 h FOB score turn out when “RNA1{[moe]([m5C])[sp].[moe](T)p.[moe]([m5C])p.[moe](T)p.[moe](T)p.[moe](T)p.d([m5C])[sp].d(T)[sp].d(T)[sp].d(A)[sp].d(T)[sp].d(T)[sp].d(T)[sp].d([m5C])[sp].d(T)[sp].d(G)[sp].[moe](T)p.[moe](T)[sp].[moe](T)}$$$$ (last 3' nucleoside missing)” was run?
**A.** Its 3 h FOB score is 1 score 0-7.

**Q.** “RNA1{[moe]([m5C])[sp].[moe](A)p.[moe](T)p.[moe](A)p.[moe](A)p.[moe](T)p.d([m5C])[sp].d([m5C])[sp].d([m5C])[sp].d(A)[sp].d(T)[sp].d(T)[sp].d(A)[sp].d(T)[sp].d(A)[sp].d([m5C])[sp].[moe](A)p.[moe](A)[sp].[moe](A)}$$$$ (last 3' nucleoside missing)” was tested. Which 3 h FOB score did it give?
**A.** Its 3 h FOB score is 0 score 0-7.

**Q.** “RNA1{[moe](G)[sp].[moe](A)p.[moe](A)p.[moe](T)p.[moe](T)p.[moe]([m5C])p.d(T)[sp].d(A)[sp].d(T)[sp].d(T)[sp].d(T)[sp].d(T)[sp].d(A)[sp].d(T)[sp].d(A)[sp].d(A)[sp].[moe](A)p.[moe](T)[sp].[moe](G)}$$$$ (last 3' nucleoside missing)” was tested. Which 3 h FOB score did it give?
**A.** Its 3 h FOB score is 1 score 0-7.

**Q.** How did the 3 h FOB score turn out when “RNA1{[moe]([m5C])[sp].[moe](T)p.[moe](G)p.[moe]([m5C])p.d(A)[sp].d(T)[sp].d(G)[sp].d(T)[sp].d(A)[sp].d(A)[sp].d([m5C])[sp].d([m5C])[sp].d(T)[sp].d(T)[sp].[moe](T)p.[moe](A)p.[moe](T)p.[moe](A)[sp].[moe]([m5C])}$$$$ (last 3' nucleoside missing)” was run?
**A.** The 3 h FOB score was 0 score 0-7.

**Q.** Which 3 h FOB score does the source give for “RNA1{[moe]([m5C])[sp].[moe](T)p.[moe](G)p.[moe]([m5C])p.[moe](A)p.d(T)[sp].d(G)[sp].d(T)[sp].d(A)[sp].d(A)[sp].d([m5C])[sp].d([m5C])[sp].d(T)[sp].d(T)[sp].d(T)[sp].[moe](A)p.[moe](T)p.[moe](A)[sp].[moe]([m5C])}$$$$ (last 3' nucleoside missing)” here?
**A.** Its 3 h FOB score is 0 score 0-7.
